Measurements from patent US20140371070A1, “PLANT GROWTH REGULATING COMPOUNDS” (Syngenta Participations AG, priority 2011, published 2014).

melting point [°C] | SMILES
118 to 119 | O=C(CCC(=O)OCCCC(F)(F)F)Nc1ccc(Br)cn1
97 to 98 | CC1(CCOC(=O)CCC(=O)Nc2ccc(Br)cn2)OCCO1 [Compound A43, 2-(2-methyl-1,3-dioxolan-2-yl)ethyl 4-[(5-bromo-2-pyridyl)amino]-4-oxo-butanoate]
